Test results taken from patent US8309554B2 (priority 2008, dated 2012).
pIC50: −log10 of the molar value. Values joined by “and” are separate entries in the source; they are usually repeats but may differ in a detail not shown here. Equal entries are not always repeated. Where two headings read alike, the source gives them in different places.

Key:
[1] = system: HT 1080 sarcoma xenograft; conditions: mouse, in vivo
[2] = system: H460; assay: cells; type: cell-based; conditions: for pIC50: Homo sapiens
[3] = system: H460 spheroid; assay: cells; type: cell-based; conditions: Homo sapiens
[4] = system: HT29; assay: cells; type: cell-based; conditions: for pIC50: Homo sapiens, HT-29, 2 h
[5] = system: H460 non small cell lung xenograft; conditions: mouse, in vivo
[6] = in vivo; conditions: mouse, ip
[7] = NCI-H460, read-out: 2 h Air H460 monolayer IC50
[8] = NCI-H460, read-out: 2 h N2 H460 monolayer IC50
[9] = NCI-H460, read-out: 2 h Air H460 spheroid IC50
[10] = NCI-H460, read-out: 2 h N2 H460 spheroid IC50
[11] = NCI-H460, 2 h, read-out: 2 hr Air H460 IC50
[12] = NCI-H460, 2 h, read-out: 2 hr N2 H460 IC50

Compound	tumor growth delay to 500 mm^3 [1]	pIC50 [2, 7]	pIC50 [2, 8]	pIC50 [3, 9]	pIC50 [3, 10]	H460 HCR: Air/N2 [2]	pIC50 [2, 11]	pIC50 [2, 12]	HT29 HCR: Air/N2 [4]	pIC50 ([4]; read-out: 2 hr Air HT29 IC50)	pIC50 ([4]; read-out: 2 hr N2 HT29 IC50)	tumor growth delay to 500 mm^3 [5]	MTD [6]	tumor growth delay to 500 mm^3 ([1]; ip, 50 mg/kg)
COc1cccc2c1C(=O)c1c(O)c3c(c(O)c1C2=O)C[C@@](O)(C(=O)CO)C[C@@H]3O[C@H]1C[C@H](N)[C@H](O)[C@H](C)O1 [doxorubicin, reference compound]	10 days													
CN(c1ccc(N(CCCl)CCCl)cc1)S(=O)(=O)Cn1ccnc1[N+](=O)[O-] [TH-1107]		3.95	5.10	> 6.16	> 6.16									
O=[N+]([O-])c1sccc1C(Cc1cccnc1)S(=O)(=O)Oc1ccc(N(CCCl)CCCl)cc1 (stereo not shown) [TH-1331, 3-(4-(N,N-bis-(2-Chloroethyl)amino)phenoxysulfonyl-(pyridin-3-yl-methyl))methyl-2-nitrothiophene]						69	3.99	5.82	15	3.78	4.96	11 days and 10 days	60 mg/kg	
CS(=O)(=O)CCC(c1ccsc1[N+](=O)[O-])S(=O)(=O)Oc1ccc(N(CCCl)CCCl)cc1 (stereo not shown) [TH-1266, 3-(4-(N,N-bis-(2-Chloroethyl)amino)phenoxysulfonyl-(2-methylsulfonyl)ethyl)methyl-2-nitrothiophene]						183	4.26	6.52	>29	< 3.00	4.47	25 days and 21 days	40 mg/kg	
Cn1cncc1CC(c1ccsc1[N+](=O)[O-])S(=O)(=O)Oc1ccc(N(CCCl)CCCl)cc1 (stereo not shown) [TH-1365]						33	4.64	6.15	25	3.57	4.96	10 days	10 mg/kg	
O=[N+]([O-])c1sccc1C(Cc1ccc(OCCO)nc1)S(=O)(=O)Oc1ccc(N(CCCl)CCCl)cc1 (stereo not shown) [TH-1315, 3-(4-(N,N-bis-(2-Chloroethyl)amino)phenoxysulfonyl-(2-(2-hydroxyethoxy)pyridin-5-yl-methyl))methyl-2-nitrothiophene]						142	4.00	6.15	>23	< 3.52	4.89	19 days	50 mg/kg	6 days
CC(n1ccnc1[N+](=O)[O-])S(=O)(=O)N(C)c1ccc(N(CCCl)CCCl)cc1 (stereo not shown) [TH-1127]		4.43	5.41	> 6.16	> 6.16									
O=C(CO)Nc1ccc(CC(c2ccsc2[N+](=O)[O-])S(=O)(=O)Oc2ccc(N(CCCl)CCCl)cc2)cn1 (stereo not shown) [TH-1354, 3-(4-(N,N-bis-(2-Chloroethyl)amino)phenoxysulfonyl-(2-(hydroxyacetylamino)pyridin-5-yl-methyl))methyl-2-nitrothiophene]						65	3.81	5.62	33	3.18	4.70	15 days and 12 days	40 mg/kg	
O=[N+]([O-])c1sccc1C(Cc1ccc(O)nc1)S(=O)(=O)Oc1ccc(N(CCCl)CCCl)cc1 (stereo not shown) [TH-1305, 3-(4-(N,N-bis-(2-Chloroethyl)amino)phenoxysulfonyl-(2-hydroxypyridin-5-yl-methyl))methyl-2-nitrothiophene]						67	4.33	6.15	>44	< 3.52	5.17	10 days	20 mg/kg	
Cc1cc(OS(=O)(=O)C(C)c2ccsc2[N+](=O)[O-])ccc1N(CCCl)CCCl (stereo not shown) [TH-1120]		5.62	6.52	> 7.10	> 7.10									
CN(c1ccc(N(CCCl)CCCl)cc1)S(=O)(=O)C(C)(C)c1cnc([N+](=O)[O-])n1C [TH-1126]		4.35	5.15	> 6.16	> 6.16									
Cn1ccnc1CC(c1ccsc1[N+](=O)[O-])S(=O)(=O)Oc1ccc(N(CCCl)CCCl)cc1 (stereo not shown) [TH-1366]						40	4.70	6.30	14	3.74	4.89			
COc1ccc(CC(c2ccsc2[N+](=O)[O-])S(=O)(=O)Oc2ccc(N(CCCl)CCCl)cc2)c(OC)n1 (stereo not shown) [TH-1362]						46	3.60	5.26		< 3.00	< 3.00			
O=[N+]([O-])c1sccc1C(Cc1ccc(C(F)(F)F)nc1)S(=O)(=O)Oc1ccc(N(CCCl)CCCl)cc1 (stereo not shown) [TH-1423]						750	3.52	6.40		< 3.52	< 3.52			
O=[N+]([O-])c1sccc1C(CCS(=O)(=O)N1CCC(O)CC1)S(=O)(=O)Oc1ccc(N(CCCl)CCCl)cc1 (stereo not shown) [TH-1347]						76	3.87	5.74	20	3.40	4.70			
O=[N+]([O-])c1sccc1C(Cc1cnc(OCCO)c(Cl)c1)S(=O)(=O)Oc1ccc(N(CCCl)CCCl)cc1 (stereo not shown) [TH-1420]						62	4.10	5.89		< 3.52	< 3.52			
O=[N+]([O-])c1sccc1C(CCS(=O)(=O)c1ccncc1)S(=O)(=O)Oc1ccc(N(CCCl)CCCl)cc1 (stereo not shown) [TH-1363]						113	4.17	6.22		< 3.00	< 3.00			
CNc1ccc(CC(c2ccsc2[N+](=O)[O-])S(=O)(=O)Oc2ccc(N(CCCl)CCCl)cc2)cn1 (stereo not shown) [TH-1442]						116	4.03	6.10	66	3.64	5.46			
Nc1ccc(CC(c2ccsc2[N+](=O)[O-])S(=O)(=O)Oc2ccc(N(CCCl)CCCl)cc2)cc1.O=C(O)C(F)(F)F (stereo not shown) [TH-1330, 3-(4-(N,N-bis-(2-Chloroethyl)amino)phenoxysulfonyl-(4-aminophenylmethyl))methyl-2-nitrothiophene]						253	3.64	6.05	21	3.73	5.05			
Nc1ncccc1CC(c1ccsc1[N+](=O)[O-])S(=O)(=O)Oc1ccc(N(CCCl)CCCl)cc1.O=C(O)C(F)(F)F (stereo not shown) [TH-1374]						73	3.84	5.70	23	3.20	4.55			
O=[N+]([O-])c1sccc1C(Cc1ccc2nccn2c1)S(=O)(=O)Oc1ccc(N(CCCl)CCCl)cc1 (stereo not shown) [TH-1435, 3-(4-(N,N-bis-(2-Chloroethyl)amino)phenoxysulfonyl-(imidazopyidin-5-yl-methyl))methyl-2-nitrothiophene]						30	4.74	6.22	>35	< 3.52	5.07			
O=[N+]([O-])c1sccc1C(CCS(=O)(=O)N1CCOCC1)S(=O)(=O)Oc1ccc(N(CCCl)CCCl)cc1 (stereo not shown) [TH-1303]						69	4.12	5.96		< 3.52	< 3.52			
CC(=O)Nc1ccc(CC(c2ccsc2[N+](=O)[O-])S(=O)(=O)Oc2ccc(N(CCCl)CCCl)cc2)cn1 (stereo not shown) [TH-1271]						236	3.63	6.00	1.3	3.01	3.12			
